Measurements taken from patent publication US8809344B2, “Compounds, compositions, and methods for control of hepatitis C viral infections” (priority 2008, dated 2014).

Key:
[1] = test system: Huh7.5 cells; experiment: ATP viability assay (CellTiter-Glo) in replicon-harboring Huh7.5 cells; type: cell-based, human; details: 24 hours post-treatment; Huh7.5 cells harboring transient genotype 1b replicon
Description: Inhibition of HCV replication by AP0089652, AP0080978 (enantiomer 2 from Example 1) and AP0080977 (enantiomer 1 from Example 1) were assayed by exposing cells harboring an HCV genotype 1b replicons to the compounds and quantitating HCV replicon levels following exposure. The replicon used in these studies was a transient genotype 1b subgenomic replicon generated from the Con1 strain. In this replicon, the HCV internal ribosome entry site (IRES) within the 5′ non-translated region (NTR) drives expression of the first 32 amino acids of the core protein fused to humanized Renilla luciferase (hRluc). The encephalomycarditis IRES lies 3′ to the hRluc open reading frame (ORF) and drives expression of non-structural (NS) proteins NS3 through NS5B. Huh7.5 cells (U.S. patent application Ser. No. 10/534,571) harboring this replicon were seeded into 96-well plates at 20,000 cells per well in medium containing 10% FBS, 1× penicillin/streptomycin, 1× non-essential amino acids, and 100 ng/ml Fungizone. After a four hour attachment period, compound was added to wells using a five point 3-fold serial dilution series with four replicate treatments per dose. […] Compound-mediated HCV inhibition and toxicity were assayed 24 hours post-treatment using Renilla luciferase readout and an ATP viability assay (CellTiter-Glo, Promega, Madison, Wis., USA), respectively. […]

[2] = test system: chimeric APV112 HCV (genotype 2a with genotype 1b NS4B amino acids 53 to 218); experiment: HCV APV112 viral infectivity assay in Huh7.5 cells, 3′NTR RNA by realtime quantitative PCR; type: cell-based, hepatitis C virus; details: for Log change in 3′NTR copies relative to 1.0% DMSO (GAPDH normalized): APV112, 48 hours
Description: (§1) Inhibition of HCV infectivity by AP0080978 and its analogs (AP0080977, non-active enantiomer; AP0089652, racemate; and AP0080935, an aromatic, non-optically active analog of AP0080978) was assayed by exposing cells with infectious chimeric HCV virions in the presence of the compounds. This was accomplished by use of an HCV cell culture system essentially as described in Pietschmann, T. et al. (2006) 103(19): 7408-13, Proc. Natl. Acad. Sci. USA; and elsewhere. Two viral constructs were utilized to characterize inhibition of viral infectivity (FIG. 4). Construct APV23 (FL-J6/JFH) is a full-length, chimeric, genotype 2a HCV genome containing the HCV core through the NS2 first transmembrane domain coding region from the J6 HCV isolate linked to the second NS2 transmembrane domain NS3 through NS5B coding region of HCV strain JFH-1, as shown in FIG. 4 (i.e. an HCV chimera with the “C3 Junction” described in Pietschmann, T. et al. (2006) Proc. Natl. Acad. Sci. USA 103(19): 7408-13; see page 7409 and FIG. 2A of Pietschmann, T. et al.). Construct APV112 was generated by replacing nucleotides encoding amino acids 53 to 218 of the NS4B gene of the APV23 sequence with a corresponding sequence from a genotype 1b (Con1 strain).
(§2) Huh7.5 cells were plated at a density of 20,000 cells per well in 96-well plates. The cells were exposed to the chimeric HCV virions at a multiplicity of infection of 0.01. Potential inhibitory compounds were added simultaneously with the chimeric virus. Cells were incubated for 48 hours and then the levels of HCV 3′NTR and GAPDH RNA were quantified by realtime quantitative PCR. Data were analyzed by the comparative Ct method with delta-delta Ct determined relative to 1.0% DMSO. Results in FIGS. 5 and 6 are depicted as log change in 3′NTR copies relative to 1.0% DMSO.

[3] = test system: chimeric APV23 (FL-J6/JFH) genotype 2a HCV; experiment: HCV APV23 viral infectivity assay in Huh7.5 cells, 3′NTR RNA by realtime quantitative PCR; type: cell-based, hepatitis C virus; details: FIG. 6; genotype 2a NS4B coding region
Description: as §1, §2

Structure (SMILES): O=C(NCc1cccs1)c1nn2c(c1Cl)NC(c1ccco1)CC2C(F)(F)F (stereo not drawn) [Compound 89652, 3-chloro-5-(furan-2-yl)-N-(thiophen-2-ylmethyl)-7-(trifluoromethyl)-4,5,6,7-tetrahydropyrazolo[L5-a]pyrimidine-2-carboxamide]
- CC50 [1]: > 100 µM
- potency in viral infectivity assays relative to HCV replicon assays [2]: significantly more potent
- Log change in 3′NTR copies relative to 1.0% DMSO (GAPDH normalized) ([2]; 0.02 μM): −0.15
- Log change in 3′NTR copies relative to 1.0% DMSO (GAPDH normalized) ([2]; 0.07 μM): −0.52
- Log change in 3′NTR copies relative to 1.0% DMSO (GAPDH normalized) ([2]; 0.22 μM): −0.85
- Log change in 3′NTR copies relative to 1.0% DMSO (GAPDH normalized) ([2]; 0.67 μM): −1.31
- Log change in 3′NTR copies relative to 1.0% DMSO (GAPDH normalized) ([2]; 2 μM): −1.47
- chimeric APV112 viral infectivity ([2]; FIG. 5, sensitive genotype 1b NS4B region): reduced
- chimeric APV23 viral infectivity [3]: unaffected
